13 molecules from patent US10647680B2, “Urea compound, preparation method therefor and medical use thereof” (Ancureall Pharmaceutical (Shanghai) Co., Ltd., priority 2016, dated 2020) can be followed below.

Structures are written as SMILES.

Experiment [1] has as its system MV4-11 (FLT3 ITD+/+ mutant type). Briefly: In vitro growth inhibition (GI50), MV4-11. Conditions: Homo sapiens, MV4-11; Cell lines of leukemia; read-out: GI 50 MV4-11 FLT3 (ITD +/+). The class given is cell-based, human.
In experiment [2] the test system is MOLM-13 (FLT3 ITD+/− mutant type). The experiment is described as follows: In vitro growth inhibition (GI50), MOLM-13. The experiment is classed as cell-based, human. Conditions: Homo sapiens, MOLM-13; Cell lines of leukemia; read-out: GI 50 MOLM-13 FLT3 (ITD+/−).
The test system of the next experiment is RS4; 11 (FLT3 wild type). Briefly: In vitro growth inhibition (GI50), RS4; 11. The experiment is classed as cell-based, human. Conditions: Homo sapiens, RS4-11; Cell lines of leukemia; read-out: GI 50 RS4: 11 FLT3 (WT).
Experiment [3] deals with K562 (FLT3 negative expression, positive expression of BCR-ABL fusion protein). The experiment is described as follows: In vitro growth inhibition (GI50), K562. The experiment is classed as cell-based. The settings on record: Homo sapiens, Cell lines of leukemia, read-out: GI 50 K562 BCR-ABL.
Experiment [4] concerns RAMOS (positive expression of Brutons tyrosine protein kinase). The experiment is described as follows: In vitro growth inhibition (GI50), RAMOS. The class given is cell-based. Conditions: Homo sapiens, Cell lines of leukemia, read-out: GI 50 Ramos BTK.
Another experiment deals with U937 (FLT3 wild-type). The experiment is described as follows: In vitro growth inhibition (GI50), U937. Conditions: Homo sapiens, U-937; Cell lines of leukemia; read-out: GI 50 U937 FLT 3(WT). The class given is cell-based.
The test system of experiment [5] is Kasumi-1 (c-Kit N822K mutant type). The experiment is described as follows: In vitro growth inhibition (GI50), Kasumi-1. The settings on record: Homo sapiens, Cell lines of leukemia, read-out: GI 50 Kasumi-1 Kit (N822K). The class given is cell-based. The gist of the method: (§1)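 Cells in RPMI1640 with 10% FBS, seeded at 5–10×10^4 cells/mL, exposed next day to compound at 5,000 nM down to 0.01 nM (2- or 10-fold dilutions, ≤1% solvent) for 3–5 days at 37 °C. CCK8 absorbance at 450 nm, growth rate relative to pre-treatment and solvent controls, GI50 from concentration–growth curve.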

For experiment [6], the system named is KG-1 (expressing FGFR1OP2-FGFR1 fusion protein). Briefly: In vitro growth inhibition (GI50), KG-1. The class given is cell-based. Conditions: Homo sapiens; Cell lines of leukemia; read-out: GI 50 KG-1 FGFR1OP 2-FGFR1.
The next experiment has as its system HL-60 (FLT3 wild type). Briefly: In vitro growth inhibition (GI50), HL-60. The experiment is classed as cell-based. The settings on record: Homo sapiens, Cell lines of leukemia, read-out: GI 50 HL60 FLT3 (WT). The method in brief: as §1
Experiment [7] has as its system OCI-AML3 (NPMc+ mutant type). The experiment is described as follows: In vitro growth inhibition (GI50), OCI-AML3. The experiment is classed as cell-based. The settings on record: Homo sapiens, OCI-AML-3; Cell lines of leukemia; read-out: GI 50 OCI- AML3 NPMc+.

On to `CC(C)(C)c1cc(NC(=O)Nc2ccc(-n3cnc4cc(OC(F)(F)F)ccc43)cc2)[nH]n1` [Compound 84, 1-(5-tert-butyl-2H-pyrazol-3-yl)-3-[4-(5-trifluoromethoxy-benzimidazol-1-yl)-phenyl]-urea], for which the GI50 was 0.1 to 1 nM in experiment [1]; 0.1 to 1 nM in experiment [2]; above 1000 nM in the experiment with RS4; 11 (FLT3 wild type); above 1000 nM in experiment [3]; above 1000 nM in [4]; above 1000 nM with U937 (FLT3 wild-type). Also, the GI50 (in experiment [5]; in [6]; in the experiment with HL-60 (FLT3 wild type); in experiment [7]) was above 1000 nM in each case.

Consider `CC1(COc2ccc3c(c2)ncn3-c2ccc(NC(=O)Nc3cc(C(C)(C)C)n[nH]3)cc2)COC1` [Compound 85, 1-(5-tert-butyl-2H-pyrazol-3-yl)-3-{4-[5-(3-methyl-oxetane-3-ylmethoxy)-benzimidazol-1-yl]-phenyl]urea], for which the GI50 in experiment [1] is 0.1 to 1 nM; in experiment [2], 0.1 to 1 nM; in the experiment on RS4; 11 (FLT3 wild type), above 1000 nM; in [3] it was above 1000 nM; in experiment [4], above 1000 nM; with U937 (FLT3 wild-type), above 1000 nM. Besides, the GI50 (in experiment [5]; in experiment [6]; with HL-60 (FLT3 wild type); in experiment [7]) was above 1000 nM throughout.

As to `CC(C)(C)c1cc(NC(=O)Nc2ccc(-n3cnc4cc(OCC5CCCO5)ccc43)cc2)[nH]n1` (stereo not shown) [Compound 86, 1-(5-tert-butyl-2H-pyrazol-3-yl)-3-{4-[5-(tetrahydrofuran-2-ylmethoxy)-benzimidazol-1-yl]-phenyl}-urea], the GI50 is 0.1 to 1 nM in experiment [1]; 0.1 to 1 nM in [2]; above 1000 nM in the experiment with RS4; 11 (FLT3 wild type); above 1000 nM in experiment [3]; above 1000 nM in experiment [4]; above 1000 nM in the experiment on U937 (FLT3 wild-type). Also, the GI50 in [5] is above 1000 nM; in experiment [6], above 1000 nM; in the experiment on HL-60 (FLT3 wild type) it was 100 to 1000 nM; in experiment [7], above 1000 nM.

For `CC(C)(C)c1cc(NC(=O)Nc2ccc(-n3cnc4cc(OCC5CCCCO5)ccc43)cc2)[nH]n1` (stereo not shown) [Compound 87, 1-(5-tert-butyl-2H-pyrazol-3-yl)-3-{4-[5-(tetrahydro-pyran-2-ylmethoxy)-benzimidazol-1-yl]-phenyl}-urea], the GI50 in experiment [1] was 0.1 to 1 nM; in experiment [2], 0.1 to 1 nM; with RS4; 11 (FLT3 wild type), above 1000 nM; in [3], above 1000 nM; in experiment [4] it was above 1000 nM; in the experiment with U937 (FLT3 wild-type), above 1000 nM. For the same molecule, the GI50 (in [5]; in [6]; in the experiment on HL-60 (FLT3 wild type); in experiment [7]) was above 1000 nM in each case.

For `CCOC(=O)COc1ccc2c(c1)ncn2-c1ccc(NC(=O)Nc2cc(C(C)(C)C)n[nH]2)cc1` [Compound 88, ethyl (1-{4-[3-(5-tert-butyl-2H-pyrazol-3-yl)-carbamido]-phenyl}-H-benzimidazol-5-yloxy)-acetate], the GI50 is 1 to 10 nM in [1]; 1 to 10 nM in experiment [2]; above 1000 nM with RS4; 11 (FLT3 wild type); above 1000 nM in experiment [3]; above 1000 nM in experiment [4]; above 1000 nM in the experiment with U937 (FLT3 wild-type). In addition, the GI50 (in [5]; in experiment [6]; with HL-60 (FLT3 wild type); in [7]) was above 1000 nM in each case.

Take `CC(C)(C)c1cc(NC(=O)Nc2ccc(-n3cnc4cc(OCCN5CCCCC5)ccc43)cc2)[nH]n1` [Compound 90, 1-(5-tert-butyl-2H-pyrazol-3-yl)-3-{4-[5-(2-piperidin-1-yl-ethoxyl)-benzimidazol-1-yl]-phenyl}-urea]: the GI50 in experiment [1] was 0.1 to 1 nM; in experiment [2], 0.1 to 1 nM; in the experiment on RS4; 11 (FLT3 wild type) it was above 1000 nM; in experiment [3], above 1000 nM; in experiment [4] it was above 1000 nM; with U937 (FLT3 wild-type), above 1000 nM. Further, the GI50 (in [5]; in [6]; in the experiment on HL-60 (FLT3 wild type); in experiment [7]) was above 1000 nM throughout.

`CC(C)(C)c1cc(NC(=O)Nc2ccc(-n3cnc4cc(OCCN5CCCCCC5)ccc43)cc2)[nH]n1` [Compound 91, 1-{4-[5-(2-azepan-1-yl-ethoxy)-benzimidazol-1-yl]-phenyl}-3-(5-tert-butyl-2H-pyrazol-3-yl)-urea]: the GI50 in [1] is 0.1 to 1 nM; in experiment [2], 0.1 to 1 nM; with RS4; 11 (FLT3 wild type), above 1000 nM; in experiment [3], above 1000 nM; in experiment [4], above 1000 nM; in the experiment with U937 (FLT3 wild-type) it was above 1000 nM. The GI50 (in experiment [5]; in experiment [6]; with HL-60 (FLT3 wild type); in [7]) was above 1000 nM throughout.

With `CN1CCN(CCCOc2ccc3c(c2)ncn3-c2ccc(NC(=O)Nc3cc(C(C)(C)C)n[nH]3)cc2)CC1` [Compound 92, 1-(5-tert-butyl-2H-pyrazol-3-yl)-3-(4-{5-[3-(4-methyl-piperazin-1-yl)-propoxyl]-benzimidazol-1-yl}-phenyl)-urea], the GI50 in [1] was 0.1 to 1 nM; in [2] it was 0.1 to 1 nM; in the experiment with RS4; 11 (FLT3 wild type) it was 10 to 100 nM; in experiment [3], above 1000 nM; in experiment [4] it was 100 to 1000 nM; with U937 (FLT3 wild-type) it was 100 to 1000 nM. The GI50 (in experiment [5]; in [6]; with HL-60 (FLT3 wild type); in experiment [7]) was above 1000 nM in each case.

On to `CC(C)(C)c1cc(NC(=O)Nc2ccc(-n3cnc4cc(OCc5cccc(F)c5)ccc43)cc2)[nH]n1` [Compound 93, 1-(5-tert-butyl-2H-pyrazol-3-yl)-3-{4-[5-(3-fluoro-benzyloxy)-benzimidazol-1-yl]-phenyl]-urea], for which the GI50 in [1] is 1 to 10 nM; in [2], 1 to 10 nM; in the experiment on RS4; 11 (FLT3 wild type), above 1000 nM; in experiment [3] it was above 1000 nM; in experiment [4], above 1000 nM; in the experiment on U937 (FLT3 wild-type), above 1000 nM. Besides, the GI50 (in experiment [5]; in experiment [6]; in the experiment on HL-60 (FLT3 wild type); in experiment [7]) was above 1000 nM throughout.

On to `CC(C)(C)c1cc(NC(=O)Nc2ccc(-n3cnc4cc(OCCCCc5nnnn5C5CCCCC5)ccc43)cc2)[nH]n1` [Compound 94, 1-(5-tert-butyl-2H-pyrazol-3-yl)-3-(4-{5-[4-(1-cyclohexyl-1H-tetrazol-5-yl)-butoxy]-benzimidazol-1-yl}-phenyl)-urea], for which the GI50 in experiment [1] was 1 to 10 nM; in experiment [2] it was 1 to 10 nM; with RS4; 11 (FLT3 wild type) it was above 1000 nM; in experiment [3] it was above 1000 nM; in experiment [4], above 1000 nM; with U937 (FLT3 wild-type), above 1000 nM. Further, the GI50 (in [5]; in experiment [6]; in the experiment on HL-60 (FLT3 wild type); in experiment [7]) was above 1000 nM throughout.

On to `CC(C)(C)c1cc(NC(=O)Nc2ccc(-n3cnc4cc(Oc5nsnc5N5CCOCC5)ccc43)cc2)[nH]n1` [Compound 95, 1-(5-tert-butyl-2H-pyrazol-3-yl)-3-{4-[5-(4-morpholin-4-yl-[1,2,5]thiadiazol-3-yloxy)-benzimidazol-1-yl]-phenyl}-urea], for which the GI50 in [1] is 1 to 10 nM; in [2], 1 to 10 nM; in the experiment on RS4; 11 (FLT3 wild type) it was above 1000 nM; in experiment [3], above 1000 nM; in experiment [4], above 1000 nM; in the experiment with U937 (FLT3 wild-type), above 1000 nM. Further, the GI50 (in experiment [5]; in experiment [6]; in the experiment on HL-60 (FLT3 wild type); in experiment [7]) was above 1000 nM in each case.

In the case of `CNC(=O)c1cc(Oc2ccc3c(c2)ncn3-c2ccc(NC(=O)Nc3cc(C(C)(C)C)n[nH]3)cc2)ccn1` [Compound 96, 4-(1-{4-[3-(5-tert-butyl-2H-pyrazol-3-yl)-carbamido]-phenyl}-1H-benzimidazol-5-yloxy)-pyridin-2-carboxymethylamine], the GI50 in experiment [1] is 1 to 10 nM; in experiment [2], 1 to 10 nM; in the experiment on RS4; 11 (FLT3 wild type) it was above 1000 nM; in experiment [3] it was above 1000 nM; in [4], above 1000 nM; in the experiment on U937 (FLT3 wild-type), above 1000 nM. Besides, the GI50 (in [5]; in experiment [6]; in the experiment on HL-60 (FLT3 wild type); in [7]) was above 1000 nM throughout.

Turning to `Cc1cc(F)cc2ncn(-c3ccc(NC(=O)Nc4cc(C(C)(C)C)n[nH]4)cc3)c12` [Compound 97, 1-(5-tert-butyl-2H-pyrazol-3-yl)-3-[4-(5-fluoro-7-methyl-benzimidazol-1-yl)-phenyl]-urea], the GI50 in experiment [1] is 1 to 10 nM; in [2], 1 to 10 nM; with RS4; 11 (FLT3 wild type), above 1000 nM; in experiment [3], above 1000 nM; in experiment [4] it was above 1000 nM; with U937 (FLT3 wild-type), above 1000 nM. The GI50 (in experiment [5]; in experiment [6]; with HL-60 (FLT3 wild type); in experiment [7]) was above 1000 nM in each case.
